Here are results for two molecules from paper PMC4595804, “A strategy to discover decoy chemokine ligands with an anti-inflammatory activity” (Scientific Reports, 2015).

For one series, the system named is HUT78 T cells. The experiment in a line: WST-1 metabolic activity assay. In kind it is cell-based, human. The conditions noted are these: 30 μM (highest concentration), 72 h. An excerpt: WST-1 metabolic activity assay
The colorimetric WST-1 cell metabolic assay (Ozyme) was used to assess the cytotoxic effect of chemokine neutraligands. This is a cell viability test based on the enzymatic cleavage by the mitochondrial succinate-tetrazolium reductase of a tetrazolium salt, WST-1 (4-[3-(4-Iodophenyl)-2-(4-nitrophenyl)-2H-5-tetrazolio]-1,3 benzene disulfonate), into a water- […]
soluble formazan dye which can be detected by absorbance at 420-480nm. HUT78 T cells (or HaCat cells) were seeded on 24-well plates (200,000 cells per well) and were incubated […]
concentration ≤1% on cells). The background control was reserved as one well containing the culture medium only. The plates were incubated for 72h at 37°C. Three days later, the medium containing the neutraligands was removed, and WST-1 reagent (1:10 final dilution) (Ozyme) was added to each well for a 2h incubation at 37°C as the manufacturer’s recommendation. The plates were shaken and absorbance was measured at 450nm (reference wavelength 690nm) against the background control, using a multiwell plate reader (EnVision, Perkin Elmer). Assays were performed as three independent replicates. […]
(Heidelberg, Germany) and was cultured in Dulbecco’s Modified Eagle Medium (DMEM) (Invitrogen) supplemented with 10% fetal bovine serum (FBS) (Gibco-BRL), 100U/ml penicillin (Invitrogen), 100µg/ml streptomycin (Invitrogen) and 2mM L-glutamine (Invitrogen) at 37°C and 5% CO 2. The cells received fresh medium every other day and were subcultured every 10 days. HaCat cells were seeded in a 24-well plate (ESSEN Bioscience) at a density of 200,000 cells per well, and were allowed to grow until confluence. A scratch wound along the cell monolayer was created using the Essen woundmakerTM. Cells were washed twice with PBS to remove detached cells, and were treated with serum-free culture medium in the absence or presence of 100ng/ml chemokine (CCL22 or CCL17) preincubated with DMSO or […]
The molecules were also tested alone […]
without the chemokine. […] One […]
µg/ml of mitomycin C (Sigma-Aldrich) was added throughout the experiment in order to block cell proliferation. Once treated, the cells were immediately placed into the IncuCyteTM live-cell imaging, and the cell migration onto the wounded area was examined for 72h. Phase-contrast images acquired for each sample were captured every 2h (objective lens x10), and […]

Another series has as its target T1, CCL22 T56A (Homo sapiens, UniProt O00626, T56A).
T1 construct: codes for the mature CCL17 or CCL22 with an N-terminal thioredoxin-hexahistidin (TRX- (His)6) tag; TRX-(His)6 (N, cleaved yes); made in house; host or cells: E. coli BL21 (DE3)
The series is described as follows: Calcium responses induced by chemokine mutant, neutraligand protocol. In kind it is cell-based. The conditions noted are these: 10 μM compound, 5 nM chemokine; remaining response.

The next series deals with T2, CXCL11 (Homo sapiens, UniProt O14625).
T2 construct: thioredoxin-hexahistidin (TRX-(His)6) with enterokinase site; made in house; host or cells: E. coli BL21 (DE3)
T2 sequence (O14625 22-94): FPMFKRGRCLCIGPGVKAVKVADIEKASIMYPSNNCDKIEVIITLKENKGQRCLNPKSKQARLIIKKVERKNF
The experiment in a line: Selectivity, neutraligand protocol, EGFP-CXCR3+ HEK cells. As to conditions: 10 μM compound, 5 nM CXCL11, EGFP-CXCR3+ HEK cells. In kind it is cell-based. How it is done:
Figure 6 (a) Selectivity of CCL17 and CCL22 neutraligands towards 10 chemokines according to the “neutraligand protocol”. […] Each column represents the mean (block) ± SD (bars) of n = 3 experiments performed in triplicate. *p < 0.05; **p < 0.01; ***p < 0.005 as compared to chemokine + DMSO. (b) Chemokine neutraligands inhibited CCR4 endocytosis induced by CCL22 or CCL17. EGFP-CCR4^+ HEK cells were incubated for 30 min with DMSO or chemokine (100 nM CCL22 or CCL17) in the presence or absence of test compounds. […] Cell surface EGFP-tagged CCR4 receptors were measured by EGFP antibody labeling and flow cytometry analysis. CCR4 internalization was expressed as a percentage of total receptor surface expression calculated using control cells incubated with DMSO (100%). Each column represents the mean (block) ± SD (bars) of n = 3 experiments performed in triplicate. *p < 0.05; **p < 0.01; ***p < 0.005 as compared to chemokine alone. (c,d) Inhibition of CCL17 and CCL22- induced CCR4^+HUT78 T cell chemotaxis by neutraligands. […] The number of migrating cells induced by a chemokine alone was set at 100% migration. The number of migrating cells in the presence of chemokine and compounds were expressed as the corresponding percentages. Results were analyzed by fitting the experimental curves (% of migrating cells vs log compound concentration) using the Kaleidagraph software program, and the corresponding IC50 values were calculated. Means and SD values of triplicates were plotted.
Human cDNAs encoding CCR4 and CXCR3 receptors were cloned in pIRES plasmid (Clontech) while cDNAs encoding CCR2, CCR5, CXCR2 and CXCR4 receptors were cloned in pCEP4 vector (Life technologies). […] Stably EGFP-CCR4^+ HEK cells were selected for 5 weeks with geneticin (G-418, 600μg/ml), and resulting cell clones were checked by fluorescence microscopy and FACS analysis. […]
Dye loaded cells were placed in the FlexStation 3 (Molecular Devices). Calcium mobilization was measured at 401 and 475 nm emission fluorescence after excitation at 355 nm. […] Raw fluorescence data (at 401 and 475 nm) were exported and the ratio 401/475 was calculated. The calcium response values (height of peak response over baseline) were determined. […] The Z’ factor[29] was calculated according to the following equation: Z’ = 1-(3SD+ + 3SD−)/|Ave+ − Ave−|, where SD+ and Ave+ are respectively the standard deviation and the mean value of the positive controls (chemokine + DMSO), while SD− and Ave− are respectively the standard deviation and the mean value of the negative controls (HEPES-BSA (0.1%) mixed with DMSO, or cells mixed with C-021). Hit molecules were confirmed by performing concentration-response curves and their half maximal inhibitory concentration (IC50) values were calculated using the Kaleidagraph software.

In another series the target is T3, CXCL12 (Homo sapiens, UniProt P48061).
T3 construct: (His)6; made in house; host or cells: E. coli BL21 (DE3)
T3 sequence (P48061 22-93): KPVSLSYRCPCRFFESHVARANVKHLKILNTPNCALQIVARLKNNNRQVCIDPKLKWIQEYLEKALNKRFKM
The experiment in a line: TRIC-r calcium assay, neutraligand protocol, EGFP-CXCR4+ HEK cells. The format is cell-based. As to conditions: 10 μM compound, 5 nM CXCL12, EGFP-CXCR4+ HEK cells.

T1 sequence (O00626 25-93 T56A): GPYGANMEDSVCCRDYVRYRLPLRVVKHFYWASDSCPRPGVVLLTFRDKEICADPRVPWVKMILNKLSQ

As to `O=C(OCC(O)CO)c1ccccc1O` (centres unmarked) [GPN136, 2,3-dihydroxypropyl 2-hydroxybenzoate], the “cytotoxic activity on HUT78 T cells (metabolic activity vs control non-treated cells)” value in the series on HUT78 T cells is recorded as “no cytotoxic activity”. On CCL22 T56A, the “calcium response induced by CCL22 T56A preincubated with compound” value worked out at 40.0 ± 6.0%. Further, on CXCL11, the “effect on calcium responses induced by CXCL11” value is “no effect”. At CXCL12, the “effect on calcium responses induced by CXCL12” value is recorded as “no effect”.

For `CC(C)=CCn1cnc2c1c(=O)n(C)c(=O)n2C` [GPN279, 1,3-dimethyl-7-(3-methylbut-2-enyl)-1H-purine-2,6(3H, 7H)-dione], the “cytotoxic activity on HUT78 T cells (metabolic activity vs control non-treated cells)” value in the series with HUT78 T cells is “no cytotoxic activity”. Further, the “calcium response induced by CCL22 T56A preincubated with compound” value at CCL22 T56A is given as “neither inhibited WT nor CCL22 mutants”. Also, the “effect on calcium responses induced by CXCL11” value at CXCL11 was “no effect”. In addition, at CXCL12, the “effect on calcium responses induced by CXCL12” value was “no effect”.
